What was measured:
[1] = target: T1, Solute carrier family 22 member 16 (Homo sapiens, UniProt Q86VW1); test: TP_TRANSPORTER: inhibition of carnitine transport by Acetyl-L-carnitine at 5uM in Xenopus laevis oocytes; format: functional, cell-based, Oocyte; set-up: scale not given: the % may be the effect or the level left; conditions: probe carnitine, read-out: Activity
T1 sequence (Q86VW1 whole entry): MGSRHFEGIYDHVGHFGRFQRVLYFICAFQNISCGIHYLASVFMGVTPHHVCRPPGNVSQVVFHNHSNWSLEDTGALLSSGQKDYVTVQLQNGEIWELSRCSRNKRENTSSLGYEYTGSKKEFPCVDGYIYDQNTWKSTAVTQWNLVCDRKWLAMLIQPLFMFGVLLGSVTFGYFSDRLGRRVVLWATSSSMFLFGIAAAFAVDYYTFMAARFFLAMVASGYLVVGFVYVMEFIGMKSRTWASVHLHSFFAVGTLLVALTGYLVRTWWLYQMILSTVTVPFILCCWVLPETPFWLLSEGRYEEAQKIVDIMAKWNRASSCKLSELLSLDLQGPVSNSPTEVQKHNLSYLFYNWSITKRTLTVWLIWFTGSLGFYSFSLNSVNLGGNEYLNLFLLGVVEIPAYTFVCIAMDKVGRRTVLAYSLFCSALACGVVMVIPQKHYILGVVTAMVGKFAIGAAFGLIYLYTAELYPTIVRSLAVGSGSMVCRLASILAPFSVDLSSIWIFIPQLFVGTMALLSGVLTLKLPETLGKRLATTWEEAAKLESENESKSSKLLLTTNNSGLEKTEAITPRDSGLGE

[2] = target: T2, Organic cation/carnitine transporter 2 (Homo sapiens, UniProt O76082); test: TP_TRANSPORTER: inhibition of carnitine uptake by Carnitine-related compound-4A at 20uM in Xenopus laevis oocytes; format: functional, cell-based; set-up: scale not given: the % may be the effect or the level left; conditions: oocyte
T2 sequence (O76082 whole entry): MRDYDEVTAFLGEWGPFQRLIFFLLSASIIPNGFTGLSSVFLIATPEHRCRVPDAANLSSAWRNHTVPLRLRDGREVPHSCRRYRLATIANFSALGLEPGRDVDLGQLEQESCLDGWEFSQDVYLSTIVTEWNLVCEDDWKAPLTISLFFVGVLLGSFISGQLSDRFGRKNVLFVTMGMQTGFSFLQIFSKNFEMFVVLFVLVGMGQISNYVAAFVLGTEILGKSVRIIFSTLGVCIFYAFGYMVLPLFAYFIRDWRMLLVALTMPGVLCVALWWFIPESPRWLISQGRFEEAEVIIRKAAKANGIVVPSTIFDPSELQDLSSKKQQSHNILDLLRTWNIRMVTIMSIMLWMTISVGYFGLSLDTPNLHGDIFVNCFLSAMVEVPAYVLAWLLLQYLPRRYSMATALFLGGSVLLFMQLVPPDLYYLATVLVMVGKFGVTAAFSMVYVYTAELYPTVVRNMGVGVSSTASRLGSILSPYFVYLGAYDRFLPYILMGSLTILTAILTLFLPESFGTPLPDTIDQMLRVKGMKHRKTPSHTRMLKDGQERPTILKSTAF

[3] = target: Solute carrier family 22 member 16 (Homo sapiens) (UniProt Q86VW1); test: TP_TRANSPORTER: inhibition of carnitine uptake by Carnitine-related compound-4A at 20uM in Xenopus laevis oocytes; set-up: scale not given: the % may be the effect or the level left; conditions: Oocyte
[4] = target: T2, Organic cation/carnitine transporter 2; test: TP_TRANSPORTER: inhibition of carnitine uptake by Carnitine-related compound-5A at 20uM in Xenopus laevis oocytes; format: functional, cell-based, Oocyte; set-up: scale not given: the % may be the effect or the level left; conditions: probe carnitine, read-out: Activity
[5] = target: Solute carrier family 22 member 16 (Homo sapiens) (UniProt Q86VW1); test: TP_TRANSPORTER: inhibition of carnitine uptake by Carnitine-related compound-5A at 20uM in Xenopus laevis oocytes; set-up: scale not given: the % may be the effect or the level left; conditions: Oocyte
[6] = target: Solute carrier family 22 member 16 (Homo sapiens) (UniProt Q86VW1); test: TP_TRANSPORTER: inhibition of carnitine uptake by Carnitine-related compound-18 at 20uM in Xenopus laevis oocytes; set-up: scale not given: the % may be the effect or the level left; conditions: Oocyte
[7] = target: Solute carrier family 22 member 16 (Homo sapiens) (UniProt Q86VW1); test: TP_TRANSPORTER: inhibition of carnitine uptake by Carnitine-related compound-11A at 20uM in Xenopus laevis oocytes; set-up: scale not given: the % may be the effect or the level left; conditions: Oocyte
[8] = target: Solute carrier family 22 member 16 (Homo sapiens) (UniProt Q86VW1); test: TP_TRANSPORTER: inhibition of carnitine uptake by Carnitine-related compound-6A at 20uM in Xenopus laevis oocytes; set-up: scale not given: the % may be the effect or the level left; conditions: Oocyte
[9] = target: Solute carrier family 22 member 16 (Homo sapiens) (UniProt Q86VW1); test: TP_TRANSPORTER: inhibition of carnitine uptake by Carnitine-related compound-17 at 20uM in Xenopus laevis oocytes; set-up: scale not given: the % may be the effect or the level left; conditions: Oocyte
[10] = target: T2, Organic cation/carnitine transporter 2; test: TP_TRANSPORTER: inhibition of carnitine uptake by Carnitine-related compound-10A at 20uM in Xenopus laevis oocytes; format: functional, cell-based, Oocyte; set-up: scale not given: the % may be the effect or the level left; conditions: probe carnitine, read-out: Activity
[11] = target: Solute carrier family 22 member 16 (Homo sapiens) (UniProt Q86VW1); test: TP_TRANSPORTER: inhibition of carnitine uptake by Carnitine-related compound-10A at 20uM in Xenopus laevis oocytes; set-up: scale not given: the % may be the effect or the level left; conditions: Oocyte
[12] = target: T2, Organic cation/carnitine transporter 2; test: TP_TRANSPORTER: inhibition of carnitine transport by Carnitine-related compound-7A at 20uM in Xenopus laevis oocytes; format: functional, cell-based, Oocyte; set-up: scale not given: the % may be the effect or the level left; conditions: probe carnitine, read-out: Activity
[13] = target: Solute carrier family 22 member 16 (Homo sapiens) (UniProt Q86VW1); test: TP_TRANSPORTER: inhibition of carnitine uptake by Carnitine-related compound-7A at 20uM in Xenopus laevis oocytes; set-up: scale not given: the % may be the effect or the level left; conditions: Oocyte
[14] = target: T2, Organic cation/carnitine transporter 2; test: TP_TRANSPORTER: inhibition of carnitine transport by Carnitine-related compound-3A at 20uM in Xenopus laevis oocytes; format: functional, cell-based, Oocyte; set-up: scale not given: the % may be the effect or the level left; conditions: probe carnitine, read-out: Activity
[15] = target: Solute carrier family 22 member 16 (Homo sapiens) (UniProt Q86VW1); test: TP_TRANSPORTER: inhibition of carnitine uptake by Carnitine-related compound-3A at 20uM in Xenopus laevis oocytes; set-up: scale not given: the % may be the effect or the level left; conditions: Oocyte
[16] = target: T1, Solute carrier family 22 member 16; test: TP_TRANSPORTER: inhibition of carnitine transport by Octanoyl-carnitine at 5uM in Xenopus laevis oocytes; format: functional, cell-based; set-up: scale not given: the % may be the effect or the level left; conditions: oocyte
[17] = target: Solute carrier family 22 member 16 (Homo sapiens) (UniProt Q86VW1); test: TP_TRANSPORTER: inhibition of carnitine uptake by Carnitine-related compound-12A at 20uM in Xenopus laevis oocytes; set-up: scale not given: the % may be the effect or the level left; conditions: Oocyte
[18] = target: T2, Organic cation/carnitine transporter 2; test: TP_TRANSPORTER: inhibition of carnitine uptake by Carnitine-related compound-2A at 20uM in Xenopus laevis oocytes; format: functional, cell-based, Oocyte; set-up: scale not given: the % may be the effect or the level left; conditions: probe carnitine, read-out: Activity
[19] = target: Solute carrier family 22 member 16 (Homo sapiens) (UniProt Q86VW1); test: TP_TRANSPORTER: inhibition of carnitine uptake by Carnitine-related compound-2A at 20uM in Xenopus laevis oocytes; set-up: scale not given: the % may be the effect or the level left; conditions: Oocyte
[20] = target: T2, Organic cation/carnitine transporter 2; test: TP_TRANSPORTER: inhibition of carnitine transport by Carnitine-related compound-9A at 20uM in Xenopus laevis oocytes; format: functional, cell-based, Oocyte; set-up: scale not given: the % may be the effect or the level left; conditions: probe carnitine, read-out: Activity
[21] = target: Solute carrier family 22 member 16 (Homo sapiens) (UniProt Q86VW1); test: TP_TRANSPORTER: inhibition of carnitine uptake by Carnitine-related compound-9A at 20uM in Xenopus laevis oocytes; set-up: scale not given: the % may be the effect or the level left; conditions: Oocyte
[22] = target: T2, Organic cation/carnitine transporter 2; test: TP_TRANSPORTER: inhibition of carnitine transport by Carnitine-related compound-8A at 20uM in Xenopus laevis oocytes; format: functional, cell-based, Oocyte; set-up: scale not given: the % may be the effect or the level left; conditions: probe carnitine, read-out: Activity
[23] = target: Solute carrier family 22 member 16 (Homo sapiens) (UniProt Q86VW1); test: TP_TRANSPORTER: inhibition of carnitine uptake by Carnitine-related compound-8A at 20uM in Xenopus laevis oocytes; set-up: scale not given: the % may be the effect or the level left; conditions: Oocyte
[24] = target: T2, Organic cation/carnitine transporter 2; test: TP_TRANSPORTER: inhibition of carnitine uptake by Carnitine-related compound-13 at 20uM in Xenopus laevis oocytes; format: functional, cell-based, Oocyte; set-up: scale not given: the % may be the effect or the level left; conditions: probe carnitine, read-out: Activity
[25] = target: Solute carrier family 22 member 16 (Homo sapiens) (UniProt Q86VW1); test: TP_TRANSPORTER: inhibition of carnitine uptake by Carnitine-related compound-13 at 20uM in Xenopus laevis oocytes; set-up: scale not given: the % may be the effect or the level left; conditions: Oocyte
[26] = target: T1, Solute carrier family 22 member 16; test: TP_TRANSPORTER: inhibition of carnitine in Xenopus laevis oocytes; format: functional, cell-based, Oocyte
[27] = target: T2, Organic cation/carnitine transporter 2; test: TP_TRANSPORTER: inhibition of carnitine uptake by Carnitine-related compound-14 at 20uM in Xenopus laevis oocytes; format: functional, cell-based, Oocyte; set-up: scale not given: the % may be the effect or the level left; conditions: probe carnitine, read-out: Activity
[28] = substrate: C[N+](C)(C)CC(O)CC(=O)[O-]; test: TP_TRANSPORTER: uptake in Xenopus laevis oocytes; format: functional, cell-based, Oocyte

With `CC(=O)O[C@H](CC(=O)[O-])C[N+](C)(C)C` [ACETYLCARNITINE] the activity at 5 µM [1] was 70%.

With `CC[N+](CC)(CC)CCCCC(=O)O.[Cl-]` the Activity [2] was 50% and the Activity [3] was 20%.

`CC[N+](CCCCC(=O)O)(C(C)C)C(C)C` gave an activity at 20 µM [4] of 40% and an Activity [5] of 20%.

`CC[N+](CC)(CC)CC(O)CCC(=O)[O-]` (stereo not drawn) showed an Activity [6] of 20%.

With `CC[N+](C)(CC)CCCCCCC(=O)O` the Activity [7] was 50%.

`CCC[N+](CCC)(CCC)CCCCC(=O)O` showed an Activity [8] of 70%.

For `CC[N+](C)(CC)CC(O)CCC(=O)[O-]` (stereo not drawn), the Activity [9] was 20%.

Work on `C[N+](C)(C)CCCCCCC(=O)O` yielded an activity at 20 µM [10] of 50% and an Activity [11] of 40%.

`C[N+](C)(C)CCCCCC(=O)O` was tested, and the activity at 20 µM [12] was 35% and the Activity [13] was 20%.

`CC[N+](C)(CC)CCCCC(=O)O` was tested, and the activity at 20 µM [14] was 20% and the Activity [15] was 20%.

For `CCCCCCCC(=O)OC(CC(=O)O)C[N+](C)(C)C.[Cl-]` (stereo not drawn) [Octanoyl-carnitine], the Activity [16] was 70%.

`CC[N+](CC)(CC)CCCCCCC(=O)O` was tested, and the Activity [17] was 50%.

Molecule `C[N+](C)(C)CCCCC(=O)O` has an activity at 20 µM [18] of 40% and an Activity [19] of 20%.

`CC[N+](CC)(CC)CCCCCC(=O)O` was tested, and the activity at 20 µM [20] was 30% and the Activity [21] was 20%.

`CC[N+](C)(CC)CCCCCC(=O)O` showed an activity at 20 µM [22] of 20% and an Activity [23] of 30%.

`C[N+](C)(C)CC(O)CC(=O)[O-]` (stereo not drawn) [CARNITINE] showed an activity at 20 µM [24] of 40% and an Activity [25] of 20%.

With `C[N+](C)(C)C[C@@H](O)CC(=O)[O-]` [D-CARNITINE] the Ki [26] was 30 µM.

For `CC[N+](CC)(CC)CC(O)CC(=O)[O-]` (stereo not drawn), the activity at 20 µM [27] was 70%.

B1: Solute carrier family 22 member 16 (Homo sapiens) (protein)
chain: T1 sequence (Q86VW1 whole entry)
B1 was tested, and the Km [28] was 20 µM.

Source: ChEMBL document CHEMBL2073861, “Molecular identification of a novel carnitine transporter specific to human testis. Insights into the mechanism of carnitine recognition” (J Biol Chem, 2002)
